Reference: ChEMBL document CHEMBL1268866, “Factor Xa inhibitors: next-generation antithrombotic agents” (J Med Chem, 2010)

Experiments:
[1] = Volume of distribution at steady state in rat; type: ADME, organism-based; settings: in vivo, read-out: Vdss
[2] = Oral bioavailability in rat; type: ADME, organism-based; settings: in vivo
[3] = Half life in rat; type: ADME, organism-based; settings: in vivo
[4] = Tmax in po dosed human; type: ADME, organism-based; settings: in vivo
[5] = Drug excretion in rat feces; type: ADME, tissue-based; settings: faeces, read-out: Activity
[6] = Drug excretion in rat urine; type: ADME; settings: read-out: Activity
[7] = Drug excretion in dog feces; type: ADME, tissue-based, Canis lupus familiaris; settings: faeces, read-out: Activity
[8] = Drug excretion in dog urine; type: ADME, Canis lupus familiaris; settings: read-out: Activity
in vivo [9] = settings: dog, po
in vivo [10] = settings: dog
in vivo [11] = settings: dog; remark: listed apart in the source
in vivo [12] = settings: dog; remark: listed apart in the source
[13] = (§1) Clearance in rat; type: ADME, organism-based; settings: in vivo
Canis familiaris = species: Canis familiaris; assay: Plasma concentration in dog; type: ADME, organism-based, Canis lupus familiaris; settings: in vivo
[14] = Oral bioavailability in monkey; settings: in vivo
[15] = Clearance in monkey; type: ADME, organism-based, Macaca mulatta; settings: rhesus monkey, in vivo
[16] = Volume of distribution at steady state in monkey; type: ADME, organism-based, Macaca mulatta; settings: rhesus monkey, in vivo; read-out: Vdss
[17] = Half life in monkey; type: ADME, organism-based, Macaca mulatta; settings: rhesus monkey, in vivo
Rattus norvegicus = species: Rattus norvegicus; assay: as §1; type: ADME, organism-based; settings: in vivo
[18] = Half life in po dosed human; type: ADME, organism-based; settings: in vivo
[19] = Drug excretion in human urine; type: ADME, tissue-based; settings: read-out: Activity
[20] = Drug excretion in human feces; type: ADME, tissue-based; settings: faeces, read-out: Activity
[21] = Oral bioavailability in chimpanzee; type: ADME, organism-based, Pan troglodytes; settings: in vivo
[22] = Volume of distribution in chimpanzee; type: ADME, organism-based, Pan troglodytes; settings: in vivo
[23] = Half life in human; type: ADME, organism-based; settings: in vivo
[24] = Clearance in human; type: ADME, organism-based; settings: in vivo

O=C(NC[C@H]1CN(c2ccc(N3CCOCC3=O)cc2)C(=O)O1)c1ccc(Cl)s1 [RIVAROXABAN]
Vd [1]: 0.3 L/kg
bioavailability [2]: 57%
half-life [3]: 72 min
Tmax [4]: 1.3 h
dose excreted [5]: 67%
dose excreted [6]: 25%
dose excreted [7]: 43%
dose excreted [8]: 52%
bioavailability (in vivo [9]): 60%
half-life (in vivo [10]): 54 min
clearance (in vivo [11]): 5 mL/min/kg
Vd (in vivo [12]): 0.4 L/kg

CN(C)C(=N)c1ccc(NC(=O)c2cc(C(F)(F)F)nn2-c2cc3ccccc3cc2F)c(F)c1
bioavailability [2]: 47%

CN(C)Cc1nccn1-c1ccc(N2CC[C@H](NS(=O)(=O)/C=C/c3ccc(Cl)s3)C2=O)c(F)c1
Vd [1]: 0.6 L/kg
clearance [13]: 13 mL/min/kg
bioavailability [2]: 52%
half-life [3]: 60 min

Nc1nccc2ccc(CN3CC[C@H](NS(=O)(=O)c4cc5ncccc5s4)C3=O)cc12
concentration (Canis familiaris): 2700 nM
bioavailability (in vivo [9]): 33%

Cc1cc(C(=O)Nc2ccc(-n3ccnc3CN(C)C)cc2F)n(-c2ccc3cc(Cl)ccc3c2)n1
bioavailability [2]: 35%
half-life [3]: 432 min

Cc1ncc2n1C(=O)N(C1CCN(C(=O)CCS(=O)(=O)c3ccc4cc(Cl)ccc4c3)CC1)C2
bioavailability [14]: 46%

O=C1CN(S(=O)(=O)/C=C/c2ccc(Cl)s2)CCN1Cc1cc2c[nH]ccc-2n1
bioavailability (in vivo [9]): 97%
half-life (in vivo [10]): 52 min

CO[C@@H]1C[C@H](C(=O)Nc2ccc(-c3ccccc3S(C)(=O)=O)cc2F)N(C(=O)Nc2ccc(Cl)cc2)C1
bioavailability [2]: 28%

CC(=N)N1CCC(Oc2ccc(N(Cc3ccc4ccc(C(=N)N)cc4c3)S(=O)(=O)CC(=O)O)cc2)CC1 [YM-60828]
bioavailability [14]: 20%

CN1CCc2nc(C(=O)N[C@@H]3C[C@@H](C(=O)N(C)C)CC[C@@H]3NC(=O)c3cc4cc(Cl)ccc4[nH]3)sc2C1
clearance [15]: 12.4 mL/min/kg
Vd [16]: 1.49 L/kg
half-life [17]: 90 min

NCc1ccccc1-n1nc(C(F)(F)F)cc1C(=O)Nc1ccc(-c2ccccc2S(N)(=O)=O)cc1F
bioavailability (in vivo [9]): 100%

CN(C)Cc1ccc(C(=O)Nc2ccc(Cl)cc2C(=O)Nc2ccc(Cl)cn2)cc1
Vd [1]: 33 L/kg
bioavailability [2]: 100%

CN(C)Cc1nccn1-c1ccc(NC(=O)c2cc(C(F)(F)F)nn2-c2ccc3onc(N)c3c2)cc1
bioavailability (in vivo [9]): 16%
half-life (in vivo [10]): 96 min
clearance (in vivo [11]): 41.7 mL/min/kg
Vd (in vivo [12]): 4.5 L/kg

CN(C)Cc1ccccc1-c1ccc(C(=O)Nc2ccc(Cl)cc2C(=O)Nc2ccc(Cl)cn2)cc1
bioavailability [2]: 100%

COc1ccc(-n2nc(C(N)=O)c3c2C(=O)N(c2ccc(N4CCCCC4=O)cc2)CC3)cc1 [APIXABAN]
Vd [1]: 0.31 L/kg
clearance (Rattus norvegicus): 0.26 L/h/kg
half-life [18]: 480 min
dose excreted [19]: 25%
dose excreted [20]: 47%
bioavailability [21]: 51%
Vd [22]: 0.17 L/kg
bioavailability (in vivo [9]): > 50%
clearance (in vivo [11]): 0.333 mL/min/kg
Vd (in vivo [12]): 0.2 L/kg

CS(=O)(=O)c1cc(F)ccc1N1CCN(C(=O)[C@H](NC(=O)c2ccc3ccnc(N)c3c2)c2ccccc2)CC1
bioavailability [2]: 27%

CO[C@@H]1C[C@H](C(=O)Nc2ccc(-n3ccccc3=O)cc2F)N(C(=O)Nc2ccc(Cl)cc2)C1 [ERIBAXABAN]
bioavailability [2]: 82%
bioavailability (in vivo [9]): 41%
clearance (in vivo [11]): 2.5 mL/min/kg
Vd (in vivo [12]): 0.87 L/kg

CC(=N)N1CC[C@H](Oc2ccc([C@H](Cc3ccc4ccc(C(=N)N)cc4c3)C(=O)O)cc2)C1 [DX-9065A]
half-life [23]: > 1200 min
clearance [24]: 120 mL/min

O=C([C@H](O)CS(=O)(=O)c1ccc2cc(Cl)ccc2c1)N1CCC(N2CCCNC2=O)CC1 [LETAXABAN]
clearance [15]: 11.8 mL/min/kg
Vd [16]: 0.579 L/kg
bioavailability [14]: 52.5%

CS(=O)(=O)c1ccccc1-c1ccc(NC(=O)[C@H]2C[C@@H](O)CN2C(=O)Nc2ccc(Cl)cc2)c(F)c1
bioavailability [2]: 17%

CN1CCc2nc(C(=O)N[C@@H]3C[C@@H](C(=O)N(C)C)CC[C@@H]3NC(=O)C(=O)Nc3ccc(Cl)cn3)sc2C1 [EDOXABAN]
bioavailability [14]: 50%

O=C1CN(S(=O)(=O)c2cc3ccc(Cl)cc3s2)CCN1Cc1cc2c[nH]ccc-2n1
bioavailability (in vivo [9]): 46%
half-life (in vivo [10]): 36 min

O=C(Nc1ccc(-n2ccccc2=O)cn1)[C@H]1C[C@](O)(c2ccc(F)cc2F)CN1C(=O)Nc1ccc(Cl)cc1
half-life (in vivo [10]): 756 min

CCCCOC(=O)COc1cc(-c2ccccc2S(C)(=O)=O)ccc1CCNS(=O)(=O)c1cc(C(=N)NO)ccc1O
bioavailability [2]: 15%

CN1CCC(N2CCN(C(=O)[C@H](NC(=O)c3ccc4cc[nH]c4c3)c3ccccc3)CC2)CC1 [LY-517717]
bioavailability [2]: 25%
half-life [3]: 420 min
bioavailability (in vivo [9]): 25%
half-life (in vivo [10]): 420 min

Cc1cc2cc(N=C(NC#N)N[C@H]3CCCCN(CC(=O)N4CCCC4)C3=O)ccc2o1
bioavailability [2]: 50%

COC[C@@H](NC(=O)c1ccc(Cl)s1)C(=O)Nc1ccc(N2CCOCC2=O)c(C)c1
bioavailability [2]: 60%
clearance [15]: 4.17 mL/min/kg
bioavailability (in vivo [9]): 60%
bioavailability [14]: 80%
